{
  "source": "patent US9504676B2",
  "about": "“Molecules inhibiting a metabolic pathway involving the Syk protein tyrosine kinase and method for identifying said molecules” (CENTRE NATIONAL DE LA RECHERCHE SCIENTIFIQUE, priority 2008, dated 2016)",
  "key": {"ERK1/2": {"tested_on": "ERK1/2", "experiment": "MAP kinase activation: ERK1/2 phosphorylation level", "assay_type": "cell-based", "conditions": "high C-13 concentration", "protocol": "The association of SLP-76 with Vav and/or Nck plays a role in optimal MAP kinase activation in mast cells^27.\n(§1) • 1) Chemical products and antibodies. A chemical bank of 3000 molecules (a varied subset) was acquired from ChemBridge, Inc. (San Diego, Calif.). Stocks of solutions of small molecules were prepared at a rate of 10 mM in DMSO (dimethylsulphoxide), except for C-13 (methyl 2-{5-[(3-benzyl-4-oxo-2-thioxo-1,3-thiazolidin-5-ylidene)methyl]-2-furyl}benzoate, ChemBridge ID No. 6197026) prepared in DMF (dimethylformamide). Unless specified otherwise, all the reagents were supplied by Sigma. Dinitrophenyl (DNP) hapten was acquired from Calbiochem. Sepharose GammaBind G and all the secondary antibodies were supplied by GE Health Amersham Biosciences. […] The binding of G4G11 with Syk was assessed by adding the 9E10 monoclonal antibody conjugated with HRP detecting the amino acid sequence EQKLISEEDLN of human c-myc protein located at the C-terminal end of the scFv fragment. To generate Syk mutants, targeted mutagenesis was used on GST:Syk 6-242 protein and the binding of G4G11 with the mutants was assessed in the presence of 5 μM of C-13. • 3) Cells, culture conditions and functional tests. […] The level of β-hexosaminidase released was measured 10 min later and the TNF-α titration was performed by means of a cytotoxicity test on L929 cells as described previously^10, 3 hours after stimulation. […]"}, "PLC-γ with LAT": {"tested_on": "PLC-γ with LAT", "experiment": "Association of PLC-γ with LAT (immunoprecipitation)", "assay_type": "cell-based, rat", "conditions": "dose-dependent", "protocol": "Binding of Btk and Vav with SLP-76 is critical for regulating PLC-γ activity on the membrane, calcium mobilisation and granule exocytosis^27, 28.\nas §1, with “Calbiochem.” for “Calbiochem. Sepharose GammaBind G and all the secondary antibodies were supplied by GE Health Amersham Biosciences.”"}},
  "data": [
    {"smiles": "COC(=O)c1ccccc1-c1ccc(/C=C2/SC(=S)N(Cc3ccccc3)C2=O)o1", "note": "[Molecule C-13, methyl 2-{5-[(3-benzyl-4-oxo-2-thioxo-1,3-thiazolidin-5-ylidene)methyl]-2-furyl}benzoate]", "values": [
      {"measurement": "phosphorylation level ERK1/2", "setting": "ERK1/2", "value": "reduces"},
      {"measurement": "association of PLC-γ with LAT", "setting": "PLC-γ with LAT", "value": "inhibited"}
    ]}
  ]
}
